Assay results taken from patent publication US12036228B2, “Treatment of seizure disorders” (Shackelford Pharma Inc., priority 2022, dated 2024).
Where “and” joins values, the source holds several entries; their conditions need not be identical. Identical values can stand only once.

Experiments:
Format in all cases: in vivo
[1] = system: GTC seizures in human patients; experiment: THC treatment of several human patients with GTC seizures (responder rate, one-year remission rate, adverse effects); conditions: for Increase in 1 YR Seizure Remission Rate over expected: expected 5%; for THC-related adverse event: one adult patient
From the text: Several human patients commenced treatment with THC after a first visit. More details about the treatment are provided below. The group included 82 total adult patients and 12 total pediatric patients. Of those 94 patients, 34 adult patients and 10 pediatric patients had experienced at least one GTC seizure in the year preceding the first visit. At the time of first visit, 14 of the 34 adult patients and 8 of the 10 pediatric patients had never taken THC. At the time of first visit, five of the 34 adult patients and two of the 10 pediatric patients were consistently/regularly taking THC. At the time of first visit, 15 of the 34 adult patients and none of the 10 pediatric patients were inconsistently/irregularly taking THC or had taken THC at some point in the past and were no longer taking THC.
At the time of first visit, 16 of the 34 adult patients had treatment resistant epilepsy, which means the patients had persistent GTC seizures despite taking two different anti-seizure medications at, or prior to, the first visit. At the time of first visit, all 10 of the pediatric patients had treatment resistant epilepsy.
The first visit means the date when the patient first saw the doctor for evaluation for THC treatment for GTC seizures. Responder rates means the percentage of patients that had at least a 50% reduction in GTC seizure frequency over a one-year treatment period with THC. One-year remission rate means the percentage of patients that experienced no GTC seizures in a one-year period after commencing THC treatment.
All of the 34 adult patients and 10 pediatric patients were taking other anti-seizure medications or had other anti-seizure treatment at the time of the first visit. […] Those anti-seizure medications and other anti-seizure treatments included: lamotrigine, topiramate, topiramate XR, vagus nerve stimulation, phenytoin, valproic acid, zonisamide, benzodiazepine, surgery, levetiracetam, carbamazepine, oxcarbazepine, lacosamide, perampanel, clonazepam, phenobarbial, pregabalin, gabapentin, rufinamide, CBD (e.g., Epidiolex), clobazam, and felbamate. Also, all patients who were using THC oral dosages were using products that included no CBD or products that included CBD in doses well below the therapeutic dose for Epidiolex.
THC Treatment for the 82 adult patients varied. Many of the patients smoked marijuana, so the dosage and/or timing of the dosage was unknown. Because CBD is delivered at sub-therapeutic levels when marijuana is smoked, it is acceptable to attribute any therapeutic effect to THC. The label for the CBD drug Epidiolex includes dosages starting at 5 mg/kg daily for all indications, and increasing to maintenance doses of 10 mg/kg or 20 mg/kg for Lennox-Gestault Syndrome and Dravet Syndrome, and increasing to maintenance doses of 25 mg/kg per day for Tuberous Sclerosis Complex. When 1 gram of cannabis is smoked, it delivers CBD to the lungs in doses well below the therapeutic dose levels prescribed for Epidiolex. Some other patients took unknown dosages of THC orally.

[2] = system: GTC seizures in human patient; experiment: Example 2 human patient, Dravet syndrome
Method: A patient first started having seizures and was subsequently diagnosed with Dravet syndrome. Initially, they were having clusters of 2 GTC seizures a day for 2 days occurring about every 2 weeks. Keppra was ineffective as were other combinations of anti-epileptic drugs. Several different combinations were tried and by the time they were first seen for evaluation for cannabinoid treatment on Aug. 7, 2014, they were taking Depakote 125 mg BID, Clonazepam 0.5 mg TID, and Versed/Diastat as needed for rescue but was still having clusters of GTC seizures every 2 weeks. The patient had started a CBD product on Jul. 3, 2014 (product analysis: 11.2 mg CBD/gm with 0.38 mg THC/gm at a dose of 0.7 mL TID (unknown concentration per mL), but seizures still were occurring irregularly—primarily GTC occurring in clusters of 1-2 per day every two weeks, rare atonic, and occasional eye-flutters.

[3] = system: GTC seizures in human patient; experiment: Example 5 human patient, GTC seizures caused by cerebral angioma
From the text: A patient first started having GTC seizures in 2007 which were caused by a cerebral angioma. […] The freedom from seizures allowed them to stop taking Lamictal, and the resolution of the medication side effects allowed them to return to work.

[4] = system: GTC seizures in human patient; experiment: Example 4 human patient, idiopathic GTC seizures
From the text: A person's first evaluation for cannabinboid therapy was on Feb. 16, 2010. […] Initially in 2010, the patient was smoking cannabis in the day and taking a THC cannabis extract at night orally.

[5] = system: seizures / EEG abnormalities in human patient; experiment: Example 8 pediatric patient with atonic seizures, myoclonic seizures and Doose syndrome (24 hour EEG, seizures)
Method: They had continued to experience several seizures per day of all types despite multiple combination regimens of prescription anti-seizure medications and a trial of THC-A transdermal patch and CBD (Charlotte's Web) oral tincture and CBD transdermal patches up until the day they were first evaluated for cannabinoid treatment (age 4.5 on Mar. 8, 2016). […] They were then prescribed 1 mg oral THC tincture three times per day. On Mar. 8, 2018, the patient returned for follow-up where it was learned that all cannabinoids had been discontinued. […] The THC-A transdermal patch was restarted at 1.875 mg/day with a reduction in EEG abnormalities to 400/24 hours. Oral THC 2.5 mg BID was then restarted with a further reduction in EEG abnormalities to 20/24 hours. […] Due to the significant reduction in brain pre-seizure activity after restarting THC and concerns that there are effective dosage variations among transdermal products, the patient was then prescribed oral THC 2.5 mg BID which they continue to take.

[6] = 14 adult patients who had never taken THC prior to first visit
[7] = smoking cannabis during the day and 12.5 mg of THC orally at bedtime

## CCCCCc1cc(O)c2c(c1)OC(C)(C)[C@@H]1CCC(C)=C[C@@H]21 [THC, Delta-9-tetrahydrocannabinol]
[1]; 1.8 mg THC transdermal patch daily+2.5 mg oral THC at bedtime, 5 mg CBD BID, 63.3 kg
  GTC seizure outcome, individual pediatric patient: 50% reduction in GTC seizure rates in a one-year period following THC treatment
[1]; 2-3 mg THC+30 mg CBD orally, BID, 17.3 kg
  GTC seizure outcome, individual pediatric patient: no GTC seizures in a one-year period following THC treatment
[1]; 5-10 mg THC+10-20 mg CBD orally, daily at bedtime, 34.1 kg
  GTC seizure outcome, individual pediatric patient: no GTC seizures in a one-year period following THC treatment
[1]; 12 children
  adverse effects: none experienced adverse effects
[1]; [6]
  1 YR Seizure Remission Rate: 36%
  Responder Rate (at least 50% reduction in GTC seizure frequency over one year): 71%
[1]; 82 adult patients
  Adverse Events: 2% (2/82)
[1]; 82 adults treated with THC (sleepiness; reduced mental clarity)
  THC-related adverse effects: only two patients experienced THC-related adverse effects
[1]; Adult, calculated using the 29% (2/7) remission rate
  Increase in 1 YR Seizure Remission Rate over expected: ~**5.8X
[1]; GTCs and cerebral palsy, CBD 20 mg with 6% THC (1.2 mg) per day orally
  GTC seizure outcome, individual pediatric patient: resolution of all GTC seizure activity
[1]; Pediatric patients (0/13)
  Adverse Events: 0% (0/13)
[1]; Pediatric, calculated using the 37.5% (3/8) remission rate
  Increase in 1 YR Seizure Remission Rate over expected: ~***7.5X
[1]; THC (only), 10 mg/mL, 1-3 mg THC as rescue
  effect as rescue treatment, individual pediatric patient: complete resolution of seizures
[1]; of 34 adult patients
  patients with 50% reduction in GTC seizure rates and no GTC seizures in a one-year period following THC treatment: 15 patients
  patients with 50% reduction in GTC seizure rates but not seizure free for a one-year period following THC treatment: 9 patients
  patients without 50% reduction in GTC seizure rates and not seizure free for a one-year period following THC treatment: 10 patients
[1]; 2-3 mg THC and 38 mg CBD orally TDD
  THC-related adverse event: sleepiness
[1]; unknown amounts of THC orally
  THC-related adverse event: mental unclarity
[1]; same patient, 60-70 mg THC orally TDD in 2 divided doses
  GTC seizure outcome, individual pediatric patient: continued seizure remission
[1]; two patients, 4-12 mg THC TDD
  GTC seizure outcome, individual pediatric patients: no GTC seizures in a one-year period following THC treatment and 50% reduction in GTC seizure rate in a one-year period following THC treatment
[2]; 20 mg CBD+20 mg THC TID regimen
  cognitive function: significantly better
[2]; Depakote+Onfi+stiripentol+5 mg THC HS
  seizure-free duration: 15 months
[2]; THC 5 mg HS, CBD removed
  seizures after THC added back: improvement in the number and severity of all seizure types
[2]; THC applied to the oral mucosa
  behavioral effect when used as rescue medication: no behavioral compromise
[2]; THC applied to the oral mucosa, 6 non-convulsive seizures
  termination of seizures as rescue medication: rapidly terminated
[2]; patient not receiving THC, Apr. 25 to Dec. 3, 2017
  seizures when THC was dropped from the regimen: frequency and severity of all seizure types increased
[2]; two drops THC to gums
  effect as rescue medication: rapid effect
[3]; only orally administered THC-infused confections and drinks
  seizure status: still seizure-free
[3]; orally administered THC reduced from 150 milligrams to 70 mg at bedtime
  seizure status: continued seizure freedom
[4]; cannabis smoking during the day and THC cannabis extract orally at night
  seizures after resuming regimen: the seizures stopped
[4]; inhaled and orally administered THC cannabis products, no anti-epileptic drugs
  seizure control: well controlled
[4]; [7]
  seizure status: had no seizures
  seizure-free period: 4 years
[5]; Oral THC 2.5 mg BID restarted after THC-A patch
  EEG abnormalities: 20 /24 hours
[5]; Oral THC 2.5 mg BID with THC-A patch
  observable seizures: no observable seizures
